According to patent publication US11912693B2, “Compounds for modulating S1P1 activity and methods of using the same” (TREVENA, INC., priority 2017, dated 2024):

How the values were obtained:
[1] = target: T1, human sphingosine-1-phosphate receptor 1 (S1P1) (Homo sapiens (Human), UniProt P21453); assay: β-Arrestin2 recruitment assay (PathHunter), S1P1 CHO-K1 cells; assay type: cell-based; details: for hS1P1 B-arrestin2 pEC50: β-arrestin2 recruitment, S1P1 CHO-K1 cells; for Emax: CHO-K1, efficacy (SPAN) normalized to fingolimod, read-out: hS1P1 B-arrestin2 SPAN
Description: (§1) Stable clonal Chinese hamster ovary K1 (CHO-K1) cells co-expressing EA-β-arrestin2 and the human sphingosine-1-phosphate receptor 1 (NM_001400, S1P1) with a C-terminal Prolink™ tag were purchased from DiscoverX corporation (Cat #: 93-0207C2).
(§2) Cell lines were cultured in AssayComplete™ Media 6 (DiscoverX Corporation, Cat #: 920018GF2) at 37° C. and 5% CO2 in a humidified CO2 and temperature-controlled incubator. To begin assay plating, cells were washed with dulbecco's phosphate buffered saline (CellGro, Cat #: 21-031-CV) and lifted from the culturing flask by incubation (37° C., 5 min) with CellStripper (Cellgro, Cat #: 25-056-CI). […] Plated cells were incubated overnight at 37° C. and 5% CO2 in a humidified CO2 and temperature-controlled incubator. Detecting Inhibition of cAMP Production
Agonist-promoted β-arrestin2 recruitment to the sphingosine-1-phosphate 1 receptor was determined using the β-arrestin PathHunter®) Detection kit (DiscoverX Corporation, Cat #: 93-0001). […] In cells that stably express these fusion proteins, stimulation with a cognate agonist results in the interaction of […] and the Prolink™-tagged GPCR. This allows the complementation of the two β-galactosidase fragments and results in the formation of a functional enzyme with β-galactosidase activity. […] Following a 60 minute incubation at 37° C. and 5% CO2 in a humidified CO2 and temperature-controlled incubator, the components of the β-arrestin PathHunter® Detection kit were added as per the manufacturer's instructions. After an hour incubation at room temperature, plates were analyzed by a BMG PheraStar microplate reader.
(§3) The tables below include the efficacy of the compound as compared to a positive control, referred to as “SPAN”. These values are normalized to fingolimod, a known agonist of the sphingosine-1-phosphate 1 receptor. The tables also include potency values (pEC50) for modulating discrete receptor-mediated activities (inhibition of cAMP production and […] recruitment).
Target sequence in this assay (P21453 whole entry, looked up): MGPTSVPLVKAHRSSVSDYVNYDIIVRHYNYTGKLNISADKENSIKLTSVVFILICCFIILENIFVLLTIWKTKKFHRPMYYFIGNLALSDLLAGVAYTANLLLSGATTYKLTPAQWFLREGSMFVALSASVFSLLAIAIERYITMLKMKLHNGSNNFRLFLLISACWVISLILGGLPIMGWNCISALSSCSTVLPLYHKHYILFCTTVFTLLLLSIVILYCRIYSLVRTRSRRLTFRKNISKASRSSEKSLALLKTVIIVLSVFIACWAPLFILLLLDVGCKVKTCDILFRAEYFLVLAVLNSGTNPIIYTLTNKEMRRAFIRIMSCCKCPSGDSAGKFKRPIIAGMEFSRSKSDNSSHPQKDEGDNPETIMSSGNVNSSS
Target sequence in this assay (P32121 whole entry partner, looked up): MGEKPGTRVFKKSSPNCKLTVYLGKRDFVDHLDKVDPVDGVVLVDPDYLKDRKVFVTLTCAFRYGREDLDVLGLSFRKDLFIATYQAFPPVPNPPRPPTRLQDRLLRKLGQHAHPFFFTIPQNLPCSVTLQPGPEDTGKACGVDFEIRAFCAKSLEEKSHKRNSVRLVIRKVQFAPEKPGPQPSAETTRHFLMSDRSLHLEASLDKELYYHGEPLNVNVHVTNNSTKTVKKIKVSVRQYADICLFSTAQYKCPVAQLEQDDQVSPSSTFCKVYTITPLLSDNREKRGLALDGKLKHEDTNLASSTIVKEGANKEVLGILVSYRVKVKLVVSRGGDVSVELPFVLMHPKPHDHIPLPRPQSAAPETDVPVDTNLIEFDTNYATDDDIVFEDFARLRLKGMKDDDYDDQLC

[2] = target: T1, human sphingosine-1-phosphate receptor 1 (S1P1); assay: Inhibition of cAMP production (HTRF cAMP HiRange), S1P1 CHO-K1 cells; assay type: cell-based; details: for hS1P1 cAMP pEC50: inhibition of cAMP production, S1P1 CHO-K1 cells; for Emax: CHO-K1, efficacy (SPAN) normalized to fingolimod, read-out: hS1P1 cAMP SPAN
Description: as §1, §2
Target sequence in this assay (P21453 whole entry, looked up): as the sequence (P21453 whole entry, looked up) above
Agonist-promoted G-protein responses were determined by measuring changes in intracellular cAMP using the HTRF® cAMP HiRange kit (CisBio, Cat #: 62AM6PEJ) based on time-resolved fluorescence resonance energy transfer (TR-FRET) technology. […] Following a 30-minute incubation at 37° C. and 5% CO2 in a humidified CO2 and temperature-controlled incubator, the components of the cAMP HiRange kit were added as per the manufacturer's instructions. After an hour incubation at room temperature, plates were analyzed by a BMG PheraStar microplate reader.
as §3

Row | SMILES | hS1P1 B-arrestin2 pEC50 [1] | hS1P1 cAMP pEC50 [2] | Emax [1] [%] | Emax [2] [%]
1 | CCCn1nnc2cc(-c3nc(-c4cccc(C)c4)no3)ccc21 [Compound 54, 5-[3-(3-methylphenyl)-1,2,4-oxadiazol-5-yl]-1-propyl-1H-1,2,3-benzotriazole] | <5 | <6.5 | – | –
2 | CC(C)C(c1ccccc1)c1noc(-c2ccc3c(c2)nnn3C(C)C)n1 (stereo not drawn) [Compound 56, 5-[3-(2-methyl-1-phenylpropyl)-1,2,4-oxadiazol-5-yl]-1-(propan-2-yl)-1H-1,2,3-benzotriazole] | <5 | <6.5 | – | –
3 | O=C1CCOc2ccc(-c3nc(-c4ccncc4)no3)cc21 [Compound 57, 6-[3-(pyridin-4-yl)-1,2,4-oxadiazol-5-yl]-3,4-dihydro-2H-1-benzopyran-4-one] | <5 | <6.5 | – | –
4 | CC1(C)CCC2(CC1)CC(=O)c1cc(-c3nc(-c4cccnc4)no3)ccc1O2 [Compound 58, 4′,4′-dimethyl-6-[3-(pyridin-3-yl)-1,2,4-oxadiazol-5-yl]-3,4-dihydrospiro[1-benzopyran-2,1′-cyclohexane]-4-one] | <5 | <6.5 | < 75 | < 75
5 | C=CCNc1ccc(-c2nc(-c3ccc4c(c3)CCC(=O)N4)no2)cc1C#N [Compound 61, 2-(allylamino)-5-(3-(2-oxo-1,2,3,4-tetrahydroquinolin-6-yl)-1,2,4-oxadiazol-5-yl)benzonitrile] | >5 | >6.5 | > 75 | > 75
6 | CC(C)Oc1ccccc1-c1noc(-c2ccc3c(c2)nnn3C(C)C)n1 [Compound 62, 3-(2-isopropoxyphenyl)-5-(1-isopropyl-1H-benzo[d][1,2,3]triazol-5-yl)-1,2,4-oxadiazole] | <5 | <6.5 | – | –
7 | CC(C)n1nnc2cc(-c3ncc(-c4ccccc4F)s3)ccc21 [Compound 63, 5-(2-fluorophenyl)-2-(1-isopropyl-1H-benzo[d][1,2,3]triazol-5-yl)thiazole] | <5 | >6.5 | – | –
8 | CC(C)n1nnc2cc(-c3noc(-c4cccc(F)c4)n3)ccc21 [Compound 64, 5-(3-fluorophenyl)-3-(1-isopropylbenzotriazol-5-yl)-1,2,4-oxadiazole] | <5 | >6.5 | – | –
9 | CCC1(CC)CC(=O)c2cc(-c3nc(-c4ccc(OC)cc4)no3)ccc2O1 [Compound 65, 2,2-diethyl-6-(3-(4-methoxyphenyl)-1,2,4-oxadiazol-5-yl)chroman-4-one] | <5 | <6.5 | < 75 | < 75
10 | CCC1(CC)CC(=O)c2cc(-c3nc(-c4ccccc4C)no3)ccc2O1 [Compound 66, 2,2-diethyl-6-(3-(o-tolyl)-1,2,4-oxadiazol-5-yl)chroman-4-one] | >5 | >6.5 | > 75 | > 75
11 | CCC1(CC)CC(=O)c2cc(-c3nnc(-c4ccc5c(c4)nnn5C(C)C)s3)ccc2O1 [Compound 67, 2,2-diethyl-6-(5-(1-isopropyl-1H-benzo[d][1,2,3]triazol-5-yl)-1,3,4-thiadiazol-2-yl)chroman-4-one] | >5 | <6.5 | < 75 | > 75
12 | CCC1(CC)CC(=O)c2cc(-c3nc(-c4ccc(Cl)cc4)no3)ccc2O1 [Compound 68, 6-[3-(4-chlorophenyl)-1,2,4-oxadiazol-5-yl]-2,2-diethyl-chroman-4-one] | <5 | <6.5 | < 75 | < 75
13 | COc1ccc(-c2nc(-c3ccc4c(c3)nnn4C(C)C)no2)cc1 [Compound 69, 3-(1-isopropylbenzotriazol-5-yl)-5-(4-methoxyphenyl)-1,2,4-oxadiazole] | >5 | <6.5 | < 75 | < 75
14 | CC(C)n1nnc2cc(-c3nnc(-c4ccccc4O)s3)ccc21 [Compound 70, 2-{5-[1-(propan-2-yl)-1H-1,2,3-benzotriazol-5-yl]-1,3,4-thiadiazol-2-yl}phenol] | >5 | >6.5 | < 75 | < 75
15 | CCC1(CC)CC(=O)c2cc(-c3nc(-c4cccc(OC)c4)no3)ccc2O1 [Compound 71, 2,2-diethyl-6-(3-(3-methoxyphenyl)-1,2,4-oxadiazol-5-yl)chroman-4-one] | <5 | <6.5 | < 75 | > 75
16 | CCC1(CC)CC(=O)c2cc(-c3nc(-c4ccc(O)cc4)no3)ccc2O1 [Compound 72, 2,2-diethyl-6-[3-(4-hydroxyphenyl)-1,2,4-oxadiazol-5-yl]chroman-4-one] | >5 | >6.5 | > 75 | > 75
17 | Cn1nnc2cc(-c3noc(-c4ccccc4Br)n3)ccc21 [Compound 73, 5-(2-bromophenyl)-3-(1-methyl-1H-benzo[d][1,2,3]triazol-5-yl)-1,2,4-oxadiazole] | >5 | <6.5 | < 75 | < 75
18 | Cc1ccc(-c2nc(-c3ccc4c(c3)nnn4C(C)C)no2)s1 [Compound 74, 5-[5-(5-methylthiophen-2-yl)-1,2,4-oxadiazol-3-yl]-1-(propan-2-yl)-1H-1,2,3-benzotriazole] | <5 | <6.5 | < 75 | < 75
19 | Cc1ccsc1-c1noc(-c2ccc3c(c2)nnn3CC(C)C)n1 [Compound 75, 1-(2-methylpropyl)-5-[3-(3-methylthiophen-2-yl)-1,2,4-oxadiazol-5-yl]-1H-1,2,3-benzotriazole] | >5 | >6.5 | > 75 | < 75
20 | CCCn1nnc2cc(-c3nc(-c4cc(C)cc(C)c4)no3)ccc21 [Compound 76, 5-[3-(3,5-dimethylphenyl)-1,2,4-oxadiazol-5-yl]-1-propyl-1H-1,2,3-benzotriazole] | <5 | <6.5 | < 75 | < 75
21 | Cc1cc(-c2noc(-c3ccc4c(c3)nnn4C3CCCC3)n2)ccn1 [Compound 77] | – | – | < 75 | < 75
22 | CC(C)n1nnc2cc(-c3noc(-c4cnccn4)n3)ccc21 [Compound 78, 3-(1-isopropyl-1H-benzo[d][1,2,3]triazol-5-yl)-5-(pyrazin-2-yl)-1,2,4-oxadiazole] | <5 | <6.5 | < 75 | < 75
23 | CC(C)n1nnc2cc(-c3nc(-c4ccccc4)no3)ccc21 [Compound 79, 5-(3-phenyl-1,2,4-oxadiazol-5-yl)-1-(propan-2-yl)-1H-1,2,3-benzotriazole] | >5 | >6.5 | > 75 | > 75
